Values joined by “and” are separate entries in the source; they are usually repeats but may differ in a detail not shown here. Equal values may be shown once.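 All cell lines were grown in 96-well plates and treated with compound for 48 hours. At the GI50, growth is halved.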 Active and inactive are the calls of the source. Rule as the data show it: active = GI50 up to about 1.1 µM and inactive = higher.
Assays:
Assay in all cases: inhibition of tumour cell growth, NCI panel, 48 h
DU-145 = test system: DU-145
Hs-578T = test system: Hs-578T
UACC-62 = test system: UACC-62
T47D = test system: T47D
HCT-15 = test system: HCT-15
OVCAR-5 = test system: OVCAR-5
A549 = test system: A549
CAKI-1 = test system: CAKI-1
MDA-N = test system: MDA-N
RXF 393 = test system: RXF 393
CCRF-CEM = test system: CCRF-CEM
HT-29 = test system: HT-29
RPMI-8226 = test system: RPMI-8226
SF-295 = test system: SF-295
MDA-MB-231 = test system: MDA-MB-231
HCT-116 = test system: HCT-116
IGROV-1 = test system: IGROV-1
HOP-92 = test system: HOP-92
A498 = test system: A498
TK-10 = test system: TK-10
SF-539 = test system: SF-539
NCI-H226 = test system: NCI-H226
EKVX = test system: EKVX
OVCAR-8 = test system: OVCAR-8
SF-268 = test system: SF-268
K562 = test system: K562
COLO 205 = test system: COLO 205
SNB-75 = test system: SNB-75
MDA-MB-435 = test system: MDA-MB-435
SW-620 = test system: SW-620
UO-31 = test system: UO-31
SK-MEL-28 = test system: SK-MEL-28
M14 = test system: M14
SNB-19 = test system: SNB-19
PC-3 = test system: PC-3
U-251 = test system: U-251
SN12C = test system: SN12C
Malme-3M = test system: Malme-3M
NCI-H522 = test system: NCI-H522
HCC 2998 = test system: HCC 2998
OVCAR-3 = test system: OVCAR-3
OVCAR-4 = test system: OVCAR-4
LOX IMVI = test system: LOX IMVI
NCI/ADR-RES = test system: NCI/ADR-RES
NCI-H460 = test system: NCI-H460
UACC-257 = test system: UACC-257
KM12 = test system: KM12
SR = test system: SR
ACHN = test system: ACHN
NCI-H23 = test system: NCI-H23
MOLT-4 = test system: MOLT-4
SK-MEL-5 = test system: SK-MEL-5
786-0 = test system: 786-0
MCF7 = test system: MCF7
BT-549 = test system: BT-549
SK-MEL-2 = test system: SK-MEL-2
HOP-62 = test system: HOP-62
SK-OV-3 = test system: SK-OV-3
HL-60 = test system: HL-60

Measured: GI50

Nn1c(SCC(=O)O)nc2ccccc2c1=O
inactive: DU-145 > 100 µM | Hs-578T > 100 µM | UACC-62 > 100 µM | T47D > 100 µM | OVCAR-5 > 100 µM | A549 > 100 µM | CAKI-1 > 100 µM | MDA-N > 100 µM | RXF 393 > 100 µM | CCRF-CEM > 100 µM | HT-29 > 100 µM | RPMI-8226 > 100 µM | SF-295 > 100 µM | MDA-MB-231 > 100 µM | HCT-116 > 100 µM | IGROV-1 > 100 µM | HOP-92 > 100 µM | A498 > 100 µM | TK-10 > 100 µM | SF-539 > 100 µM | NCI-H226 > 100 µM | EKVX > 100 µM | OVCAR-8 > 100 µM | SF-268 > 100 µM | K562 > 100 µM | COLO 205 > 100 µM | SNB-75 > 100 µM | MDA-MB-435 > 100 µM | SW-620 > 100 µM | UO-31 > 100 µM | SK-MEL-28 > 100 µM | M14 > 100 µM | SNB-19 > 100 µM | PC-3 > 100 µM | U-251 > 100 µM | SN12C > 100 µM | Malme-3M > 100 µM | NCI-H522 > 100 µM | HCC 2998 > 100 µM | OVCAR-3 > 100 µM | OVCAR-4 > 100 µM | LOX IMVI > 100 µM | NCI/ADR-RES > 100 µM | NCI-H460 > 100 µM | UACC-257 > 100 µM | KM12 > 100 µM | SR > 100 µM | ACHN > 100 µM | NCI-H23 > 100 µM | MOLT-4 > 100 µM | SK-MEL-5 > 100 µM | 786-0 > 100 µM | MCF7 > 100 µM | BT-549 > 100 µM | SK-MEL-2 > 100 µM
> 100 µM: HCT-15

COc1ccc2c(c1)C(=O)c1ccccc1C2
inactive: DU-145 17.1 µM | Hs-578T 44.4 µM | UACC-62 51.8 µM | T47D 19.7 µM | OVCAR-5 > 100 µM | A549 86.7 µM | CAKI-1 79.6 µM | MDA-N > 100 µM | RXF 393 13.5 µM | CCRF-CEM 25.1 µM | HT-29 58.6 µM | RPMI-8226 46.8 µM | SF-295 36.5 µM | MDA-MB-231 18.9 µM | HCT-116 36 µM | IGROV-1 38.8 µM | HOP-62 50.6 µM | HOP-92 64 µM | A498 29.7 µM | TK-10 48.1 µM | SF-539 61.1 µM | NCI-H226 > 100 µM | EKVX 39.6 µM | OVCAR-8 > 100 µM | SF-268 70.5 µM | K562 40.3 µM | COLO 205 54.5 µM | SNB-75 26.5 µM | MDA-MB-435 41.7 µM | SW-620 71.4 µM | UO-31 > 100 µM | SK-MEL-28 > 100 µM | M14 93.8 µM | SNB-19 > 100 µM | PC-3 29.2 µM | U-251 45.2 µM | SN12C > 100 µM | NCI-H522 47.4 µM | HCC 2998 70.8 µM | OVCAR-3 82.2 µM | OVCAR-4 42.7 µM | LOX IMVI 49.9 µM | SK-OV-3 33.5 µM | NCI/ADR-RES 59.6 µM | NCI-H460 61.8 µM | UACC-257 33.8 µM | KM12 63 µM | SR 46.7 µM | ACHN > 100 µM | NCI-H23 96.4 µM | MOLT-4 28.6 µM | SK-MEL-5 49.9 µM | 786-0 73.8 µM | HL-60 16.3 µM | MCF7 64 µM | BT-549 64.1 µM | SK-MEL-2 48.3 µM
60.7 µM: HCT-15

CCCCCCCCC/C=C1\CC(CO)(COC(=O)C2CCCCC2)OC1=O (stereo not drawn)
23.2 µM: HCT-15
inactive: DU-145 7.6 µM | Hs-578T 16.4 µM | UACC-62 21.5 µM | T47D 20.9 µM | OVCAR-5 17.8 µM | A549 19.4 µM | CAKI-1 22.9 µM | MDA-N 16.7 µM | RXF 393 20.2 µM | CCRF-CEM 12.9 µM | HT-29 19.7 µM | SF-295 15.9 µM | MDA-MB-231 19.7 µM | HCT-116 23 µM | IGROV-1 20.2 µM | HOP-62 13.4 µM | HOP-92 8.17 µM | A498 22.1 µM | TK-10 21.3 µM | NCI-H226 23.3 µM | EKVX 17.9 µM | OVCAR-8 15.8 µM | SF-268 20.4 µM | K562 11 µM | COLO 205 13.6 µM | SNB-75 15.8 µM | MDA-MB-435 13.5 µM | SW-620 18.4 µM | UO-31 20.1 µM | SK-MEL-28 15.6 µM | M14 18.6 µM | SNB-19 21.8 µM | PC-3 17 µM | U-251 19.7 µM | SN12C 16.9 µM | Malme-3M 15.2 µM | NCI-H522 18.3 µM | HCC 2998 23.7 µM | OVCAR-3 18.6 µM | OVCAR-4 22.8 µM | LOX IMVI 11.8 µM | SK-OV-3 25.8 µM | NCI/ADR-RES 17 µM | NCI-H460 14.5 µM | UACC-257 27.4 µM | KM12 20.4 µM | SR 32.4 µM | ACHN 20 µM | NCI-H23 22.9 µM | MOLT-4 21.7 µM | SK-MEL-5 11.8 µM | 786-0 14.9 µM | MCF7 23.2 µM | BT-549 18.4 µM | SK-MEL-2 18.2 µM

COc1ccc(/C=C2/N/C(=N\N=C/C(O)C(O)C(O)C(O)CO)NC2=O)cc1 (stereo not drawn)
> 100 µM: HCT-15
inactive: DU-145 > 100 µM | Hs-578T > 100 µM | T47D 62.1 µM | OVCAR-5 > 100 µM | A549 > 100 µM | CAKI-1 > 100 µM | MDA-N > 100 µM | RXF 393 > 100 µM | CCRF-CEM 53.8 µM | HT-29 > 100 µM | RPMI-8226 > 100 µM | SF-295 > 100 µM | MDA-MB-231 > 100 µM | HCT-116 > 100 µM | IGROV-1 > 100 µM | HOP-62 > 100 µM | HOP-92 > 100 µM | A498 > 100 µM | TK-10 > 100 µM | SF-539 > 100 µM | NCI-H226 > 100 µM | EKVX > 100 µM | OVCAR-8 > 100 µM | SF-268 > 100 µM | K562 53.8 µM and 78 µM | COLO 205 > 100 µM | SNB-75 > 100 µM | MDA-MB-435 > 100 µM | SW-620 > 100 µM | UO-31 > 100 µM | SK-MEL-28 > 100 µM | M14 > 100 µM | SNB-19 > 100 µM | PC-3 > 100 µM | U-251 > 100 µM | SN12C > 100 µM | Malme-3M > 100 µM | NCI-H522 > 100 µM | HCC 2998 > 100 µM | OVCAR-3 > 100 µM | OVCAR-4 39.9 µM and 39.4 µM | LOX IMVI > 100 µM | SK-OV-3 > 100 µM | NCI/ADR-RES > 100 µM | NCI-H460 > 100 µM | UACC-257 > 100 µM | KM12 > 100 µM | SR > 100 µM | ACHN > 100 µM | NCI-H23 > 100 µM | MOLT-4 > 10 µM | SK-MEL-5 > 100 µM | 786-0 > 100 µM | HL-60 33 µM | MCF7 40.1 µM | BT-549 82.4 µM and 65.6 µM | SK-MEL-2 > 100 µM

Source: ChEMBL document CHEMBL1201862, “PubChem BioAssay data set” (2004)
